Reference: US20130261132A1, “CALCIUM-SENSING RECEPTOR-ACTIVE COMPOUNDS” (LEO PHARMA A/S, priority 2010, published 2013)

Key:
[1] = Clearance in rat hepatocytes; assay type: in vitro ADME; conditions: hepatic extraction ratio; test compound 0.5 μM, 1×10^6 cells/mL, 37° C.
Protocol: Test compounds and 4 control compounds are tested in duplicate per run. Test compound concentration is 0.5 μM and cell concentration is 1×10^6 cells/mL in the incubation. The described method is performed by the liquid handling system Tecan RSP and is based on a 96-well format.
The liver is collected from a male Spraque-Dawley rat. One liver lobe is cut off and flushed with various buffers to loosen the cells. The cell suspension is washed and centrifuged, and the cell density is adjusted to 1.2×10^6 cells/mL with Krebs-Henseleit buffer, pH 7.4, containing 0.2% bovine serum albumin (BSA). Only cell suspensions with viability above 80% are used.
The cell suspension is pre-heated (20 min) to 37° C. Test compound is added, and the mixture is incubated for 20 minutes. Incubations are run in duplicate. Samples are withdrawn at predetermined stop times and mixed with methanol containing internal standard (IS) to terminate all enzyme activity and precipitate proteins.
(§1) The percentage of organic solvent in the incubations is less than 1%. Careful inspections of reagents are performed prior to the start of any experiment to ensure all reagents are in solution.
(§2) The 96-well plates are centrifuged. Test compound depletion, using a compound specific LC/MS/MS method, is determined.
Data analysis is performed as described above in the section “Biological assay for analysis of clearance in human liver microsomes”, with the following modifications: Intrinsic clearance (CIint) (mL/min/10^6 cells) is calculated from: […]
where c is the cell concentration in 10^6 cells/mL.
The following scaling factors for rat are used for eq. 4:
a: 120 (cells/liver weight (10^6 cells/g))
d: 0.25 (body weight (kg))
Liver blood flow in rats (for eq. 5):
(§3) Apparent clearance below approximately 25 mL/min/kg rat body weight (corresponding to an extraction ratio of approx. 33%) is considered as low clearance (high metabolic stability). Apparent intrinsic clearance above approximately 165 mL/min/kg rat body weight (corresponding to an extraction ratio of approx. 75%) is considered as high clearance (low metabolic stability).

[2] = Clearance in human liver microsomes; assay type: in vitro ADME; conditions: hepatic extraction ratio; test compound 0.5 μM, microsomes 0.5 mg/mL, NADPH 1 mM, 37° C.
Protocol: Test compound concentration is 0.5 μM, microsome concentration is 0.5 mg/mL and NADPH concentration is 1 mM in the incubation. The described method is performed by the liquid handling system Tecan RSP and is based on a 96-well format.
Control incubations with test compound without NADPH and test compound without microsomes are conducted to investigate non-CYP mediated metabolism and stability in phosphate buffer at 37° C., respectively.
The human liver microsomal suspension in phosphate buffer is mixed with NADPH. The mixture is pre-heated (7 min) to 37° C. Test compound is added, and the mixture is incubated for 30 minutes. Incubations are run in duplicate. Samples are withdrawn at predetermined stop times and mixed with methanol containing internal standard (IS) to terminate all enzyme activity and precipitate proteins. A control without NADPH (to detect problems such as nonspecific protein binding, heat instability or non-CYP mediated metabolism) and a control without microsomes (for assessing compound stability in the absence of any active enzymes) are tested.
as §1, §2
The logarithm of the peak area ratios of test compound to internal standard (IS) versus incubation time is plotted in a graph.
The rate constant (k) (min^−1) of test compound depletion is calculated from the linear part of the curve and the half-time (t1/2) in minutes can be calculated from the rate constant (Eq. 2).
Intrinsic clearance (CIint) (mL/min/mg protein) is calculated from: […]
where c is the microsomal protein concentration in mg/mL.
Conversion to apparent clearance (CIapp) (mL/min/kg) is done by Eq. 4:
CIapp=CIint×a×b/d (Eq. 4)
where a, b and d are the scaling factors for normalizing CIint to human body weight.
a: 45 (microsomal protein/liver weight (mg/g))
b: 1500 (liver weight (g))
Hepatic clearance (CIh) (mL/min/kg) based on the well-stirred model is described as followed:
CIh=(CIapp·Q)/(CIapp+Q) (Eq. 5)
where Q is the liver blood flow in mL/min/kg (20 in humans).
Dividing hepatic clearance with liver blood flow, the hepatic extraction ratio (%) can be calculated:
as §3, with “approximately 10” for “approximately 25”, “mL/min/kg human” for “mL/min/kg rat”, “to” for “to an”, “approximately 60” for “approximately 165”

Row | Clearance (% Eh) in rat hepatocytes [1] | Clearance (% Eh) in human liver microsomes [2] | Structure (SMILES)
1 | B (B: 33% ≦ Eh ≦ 75%) | A (A: Eh < 33%) | COc1cc([C@@H](C)N[C@H]2CC[C@@H](c3ccc(OCC(=O)NCCNS(C)(=O)=O)cc3)C2)ccc1F [Compound 108, 2-[4-[(1R,3S)-3-[[(1R)-1-(4-Fluoro-3-methoxy-phenyl)ethyl]-amino]-cyclopentyl]phenoxy]-N-[2-(methanesulfonamido)ethyl]acetamide]
2 | B (B: 33% ≦ Eh ≦ 75%) | A (A: Eh < 33%) | COc1cc([C@@H](C)N[C@H]2CC[C@@H](c3ccc(OCC(=O)NCCNCCO)cc3)C2)ccc1F [Compound 106, 2-[4-[(1R,3S)-3-[[(1R)-1-(4-Fluoro-3-methoxy-phenyl)ethyl]-amino]-cyclopentyl]phenoxy]-N-[2-(2-hydroxyethylamino)ethyl]acetamide]
3 | B (B: 33% ≦ Eh ≦ 75%) | A (A: Eh < 33%) | C[C@@H](N[C@H]1CC[C@@H](c2ccc(OCC(=O)NC3CCNCC3)cc2)C1)c1cccc2ccccc12 [Compound 112, 2-[4-[(1R,3S)-3-[[(1R)-1-(1-Naphthyl)ethyl]amino]cyclopentyl]-phenoxy]-N-(4-piperidyl)acetamide]
4 | B (B: 33% ≦ Eh ≦ 75%) | A (A: Eh < 33%) | COc1cc([C@@H](C)N[C@H]2CC[C@@H](c3ccc(OCC(=O)N4CCN(C(C)=O)CC4)cc3)C2)ccc1F [Compound 109, 1-(4-Acetylpiperazin-1-yl)-2-[4-[(1R,3S)-3-[[(1R)-1-(4-fluoro-3-methoxy-phenyl)ethyl]amino]cyclopentyl]phenoxy]ethanone]
5 | A (A: Eh < 33%) | A (A: Eh < 33%) | COc1cc([C@@H](C)N[C@H]2CC[C@@H](c3ccc(OCC(=O)NCCS(N)(=O)=O)cc3)C2)ccc1F [Compound 104, 2-[4-[(1R,3S)-3-[[(1R)-1-(4-Fluoro-3-methoxy-phenyl)ethyl]-amino]-cyclopentyl]phenoxy]-N-(2-sulfamoylethyl)acetamide]
6 | B (B: 33% ≦ Eh ≦ 75%) | B (B: 33% ≦ Eh ≦ 75%) | COc1cc([C@@H](C)N[C@H]2CC[C@@H](c3ccc(OCC(=O)N4CCN(S(N)(=O)=O)CC4)cc3)C2)ccc1F [Compound 110, 4-[2-[4-[(1R,3S)-3-[[(1R)-1-(4-Fluoro-3-methoxy-phenyl)-ethyl]-amino]cyclopentyl]phenoxy]acetyl]piperazine-1-sulfonamide]
7 | B (B: 33% ≦ Eh ≦ 75%) | A (A: Eh < 33%) | COc1cc([C@@H](C)N[C@H]2CC[C@@H](c3ccc(OCC(=O)N4CCNCC4)cc3)C2)ccc1F [Compound 103, 2-[4-[(1R,3S)-3-[[(1R)-1-(4-Fluoro-3-methoxy-phenyl)ethyl]-amino]-cyclopentyl]phenoxy]-1-piperazin-1-yl-ethanone]
